Like-named read-outs stand apart in the source and are kept apart here.
What was measured:
[1] = tested on: Naringinase; assay: Glycosidase assay, naringinase (Penicillium decumbens); format: biochemical; details: 0.2 mM, negative value = stabilisation/promotion
Description: (§1) All enzymes and para-nitrophenyl substrates were purchased from Sigma, with the exception of beta-mannosidase which came from Megazyme. Enzymes were assayed at 27° C. in 0.1M citric acid/0.2M disodium hydrogen phosphate buffers at the optimum pH for the enzyme. The incubation mixture consisted of 10 μl enzyme solution, 10 μl of 1 mg/ml aqueous solution of sample and 50 μl of the appropriate 5 mM para-nitrophenyl substrate made up in buffer at the optimum pH for the enzyme. The reactions were stopped by addition of 70 μl 0.4M glycine (pH 10.4) during the exponential phase of the reaction, which had been determined at the beginning using uninhibited assays in which water replaced inhibitor. Final absorbances were read at 405 nm using a Versamax microplate reader (Molecular Devices). Assays were carried out in triplicate, and the values given are means of the three replicates per assay. The method was carried out as described in Watson et al. (1997) Phytochemistry 46 (2): 255-259.

[2] = molecular target: T1, β-glucuronidase (Bos taurus, UniProt A3KMY8); assay: Glycosidase assay, β-glucuronidase (bovine liver); format: biochemical; details: for inhibition at 200 µM: read-out: percentage inhibition
T1 sequence (A3KMY8 1-652): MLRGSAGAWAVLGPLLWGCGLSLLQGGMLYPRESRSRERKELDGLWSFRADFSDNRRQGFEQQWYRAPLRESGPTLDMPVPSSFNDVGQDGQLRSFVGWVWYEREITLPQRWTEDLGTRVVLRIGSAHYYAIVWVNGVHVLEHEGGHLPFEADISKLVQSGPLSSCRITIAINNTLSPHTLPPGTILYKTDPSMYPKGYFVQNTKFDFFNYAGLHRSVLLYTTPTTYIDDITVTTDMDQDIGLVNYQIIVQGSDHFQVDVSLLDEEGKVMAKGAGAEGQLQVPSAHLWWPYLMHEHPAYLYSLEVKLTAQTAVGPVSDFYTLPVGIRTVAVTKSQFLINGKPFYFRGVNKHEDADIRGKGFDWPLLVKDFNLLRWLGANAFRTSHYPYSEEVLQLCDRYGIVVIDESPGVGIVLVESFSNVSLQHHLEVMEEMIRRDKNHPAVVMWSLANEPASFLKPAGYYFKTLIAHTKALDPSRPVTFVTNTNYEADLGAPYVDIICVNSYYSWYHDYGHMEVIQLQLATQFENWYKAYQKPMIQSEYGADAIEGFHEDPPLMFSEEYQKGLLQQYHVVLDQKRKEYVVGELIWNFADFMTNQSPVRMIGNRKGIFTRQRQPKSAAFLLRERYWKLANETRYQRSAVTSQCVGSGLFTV
Description: as §1

[3] = tested on: N-acetyl-β-D-glucosaminidase; assay: Glycosidase assay, N-acetyl-β-D-glucosaminidase (jack bean); format: biochemical; details: 0.2 mM, negative value = stabilisation/promotion
Description: as §1

[4] = molecular target: T2, β-glucuronidase (Escherichia coli, UniProt P05804); assay: Glycosidase assay, β-glucuronidase (E. coli); format: biochemical; details: 0.2 mM, negative value = stabilisation/promotion, read-out: percentage inhibition
T2 construct: purchased Sigma
T2 sequence (P05804 whole entry): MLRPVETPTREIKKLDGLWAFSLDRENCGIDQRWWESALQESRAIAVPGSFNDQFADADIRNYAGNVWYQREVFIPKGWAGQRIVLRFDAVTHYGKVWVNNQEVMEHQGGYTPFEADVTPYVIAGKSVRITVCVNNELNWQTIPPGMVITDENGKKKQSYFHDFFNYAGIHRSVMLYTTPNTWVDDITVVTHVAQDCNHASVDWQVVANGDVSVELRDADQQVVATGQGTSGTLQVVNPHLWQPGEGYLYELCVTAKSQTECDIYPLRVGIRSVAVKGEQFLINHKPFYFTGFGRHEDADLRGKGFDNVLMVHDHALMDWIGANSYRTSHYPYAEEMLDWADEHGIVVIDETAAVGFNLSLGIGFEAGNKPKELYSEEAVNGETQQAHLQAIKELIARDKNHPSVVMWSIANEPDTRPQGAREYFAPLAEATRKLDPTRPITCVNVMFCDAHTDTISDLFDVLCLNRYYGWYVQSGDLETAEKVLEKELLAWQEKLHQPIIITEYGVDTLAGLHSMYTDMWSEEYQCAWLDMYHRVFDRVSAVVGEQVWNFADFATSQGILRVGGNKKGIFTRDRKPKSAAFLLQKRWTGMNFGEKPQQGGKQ
Description: as §1

[5] = tested on: α-D-glucosidase; assay: Glycosidase assay, α-D-glucosidase (Bacillus sterothermophilus); format: biochemical; details: 0.2 mM, negative value = stabilisation/promotion
Description: as §1

[6] = molecular target: T3, α-D-galactosidase (Coffea arabica, UniProt Q42656); assay: Glycosidase assay, α-D-galactosidase (green coffee bean); format: biochemical; details: 0.2 mM, Green coffee bean (Coffea sp.), negative value = stabilisation/promotion, read-out: percentage inhibition
T3 construct: purchased Sigma
T3 sequence (Q42656 16-378): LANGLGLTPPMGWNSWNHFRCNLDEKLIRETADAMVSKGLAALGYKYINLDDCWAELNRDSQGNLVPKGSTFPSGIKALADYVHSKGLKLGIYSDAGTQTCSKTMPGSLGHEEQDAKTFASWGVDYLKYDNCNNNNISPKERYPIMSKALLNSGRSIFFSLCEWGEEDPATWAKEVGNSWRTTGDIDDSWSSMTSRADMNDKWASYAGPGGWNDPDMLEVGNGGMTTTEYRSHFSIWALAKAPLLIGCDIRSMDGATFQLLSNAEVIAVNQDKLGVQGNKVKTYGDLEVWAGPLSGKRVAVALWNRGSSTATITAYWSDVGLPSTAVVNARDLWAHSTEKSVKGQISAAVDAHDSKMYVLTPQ
Description: as §1

[7] = molecular target: T4, glycogen phosphorylase b (Oryctolagus cuniculus, UniProt P00489); assay: Glycogen phosphorylase (GPb) activity; format: biochemical
T4 construct: purchased Sigma-Aldrich Fine Chemicals (St. Louis, Mo, USA)
T4 sequence (P00489 1-843): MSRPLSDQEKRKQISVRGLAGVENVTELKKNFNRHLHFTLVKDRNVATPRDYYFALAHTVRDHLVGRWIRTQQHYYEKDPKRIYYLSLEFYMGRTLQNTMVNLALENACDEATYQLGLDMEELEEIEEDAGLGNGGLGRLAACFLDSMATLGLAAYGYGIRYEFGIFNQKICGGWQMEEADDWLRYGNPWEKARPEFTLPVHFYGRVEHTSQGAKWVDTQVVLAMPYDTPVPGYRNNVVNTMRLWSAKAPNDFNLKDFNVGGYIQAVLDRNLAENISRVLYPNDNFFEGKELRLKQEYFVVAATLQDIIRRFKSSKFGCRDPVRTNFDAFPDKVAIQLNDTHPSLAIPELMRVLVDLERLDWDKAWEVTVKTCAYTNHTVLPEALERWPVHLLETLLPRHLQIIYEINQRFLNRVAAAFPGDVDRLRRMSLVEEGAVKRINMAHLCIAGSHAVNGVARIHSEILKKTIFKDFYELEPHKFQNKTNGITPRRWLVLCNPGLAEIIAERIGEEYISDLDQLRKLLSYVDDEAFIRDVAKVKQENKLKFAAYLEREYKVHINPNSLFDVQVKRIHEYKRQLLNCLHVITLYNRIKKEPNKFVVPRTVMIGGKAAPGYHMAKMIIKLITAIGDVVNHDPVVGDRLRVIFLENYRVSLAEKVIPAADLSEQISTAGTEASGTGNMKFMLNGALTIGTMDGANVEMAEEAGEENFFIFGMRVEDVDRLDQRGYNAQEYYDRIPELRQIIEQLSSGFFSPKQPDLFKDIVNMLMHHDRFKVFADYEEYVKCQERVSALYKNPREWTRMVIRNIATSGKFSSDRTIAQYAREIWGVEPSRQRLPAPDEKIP
Description: N2-beta-D-Fructopyranos-1-yl-Arginine and 1-Deoxy-1-(N-γ-aminobutyric acid)fructose were tested on glycogen phosphorylase and found to give weak inhibition (14.2 and 5.5% respectively at 400 μM.
Materials. Phosphoglucomutase, glucose-6-phosphate dehydrogenase, glucose-1,6-bisphosphate, glycogen phosphorylase b, α-D-glucose 1-phosphate dipotassium salt hydrate were purchased from Sigma-Aldrich Fine Chemicals (St. Louis, Mo, USA). Glycogen and caffeine were purchased from Nacalai Tesque (Kyoto, Japan). Other chemicals were from Wako Pure Chemical industries (Osaka, Japan).
Measurement of GPb activity. GPb activity was measured in the direction of glycogenolysis using 2 mg/mL glycogen as the substrate in 45 mM phosphate buffer at pH 6.8, containing 0.1 mM EDTA. […] The rate of enzyme-catalysed reaction in the medium can be followed as the increase in absorbance at 340 nm and 25° C. due to the formation of NADPH. GPb activity was also measured in the direction of glycogen synthesis using 25 mM glucose-1-P as substrate in a 250 mM Tris-malate buffer (pH 6.8), containing 5 mg/mL glycogen, 1 mM AMP, 15 mM cysteine, and glycogen phosphorylase b. […] Pi was measured by the Fiske-Subbarow method. The rate of enzyme-catalysed reaction in the medium was followed as the Increase in absorbance at 660 nm.

[8] = tested on: β-D-mannosidase; assay: Glycosidase assay, β-D-mannosidase (Cellullomonas fimi); format: biochemical; details: 0.2 mM, negative value = stabilisation/promotion
Description: as §1

[9] = molecular target: T5, Amyloglucosidase (Aspergillus niger, UniProt P69328); assay: Glycosidase assay, amyloglucosidase (Aspergillus niger); format: biochemical; details: 0.2 mM, negative value = stabilisation/promotion, read-out: percentage inhibition
T5 construct: purchased Sigma
T5 sequence (P69328 25-640): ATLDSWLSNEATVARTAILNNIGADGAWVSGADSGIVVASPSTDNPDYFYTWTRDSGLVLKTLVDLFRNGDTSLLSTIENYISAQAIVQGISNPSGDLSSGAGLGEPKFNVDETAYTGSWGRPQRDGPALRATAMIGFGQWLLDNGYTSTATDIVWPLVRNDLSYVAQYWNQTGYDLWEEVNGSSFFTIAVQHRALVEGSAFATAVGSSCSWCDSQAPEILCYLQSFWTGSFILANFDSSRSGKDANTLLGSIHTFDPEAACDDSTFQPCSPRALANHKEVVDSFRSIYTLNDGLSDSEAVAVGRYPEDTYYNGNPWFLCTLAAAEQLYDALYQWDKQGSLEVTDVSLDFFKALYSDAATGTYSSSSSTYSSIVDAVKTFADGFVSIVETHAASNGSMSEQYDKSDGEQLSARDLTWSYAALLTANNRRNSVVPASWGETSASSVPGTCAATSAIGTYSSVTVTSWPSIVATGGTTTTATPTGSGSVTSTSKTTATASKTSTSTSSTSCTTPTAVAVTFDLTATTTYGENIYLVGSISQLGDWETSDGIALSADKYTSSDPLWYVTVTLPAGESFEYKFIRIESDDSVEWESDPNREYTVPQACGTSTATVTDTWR
Description: as §1

[10] = molecular target: T6, N-acetyl-β-D-hexosaminidase (Aspergillus oryzae, UniProt Q8J2T0); assay: Glycosidase assay, N-acetyl-β-D-hexosaminidase (Aspergillus oryzae); format: biochemical; details: 0.2 mM, negative value = stabilisation/promotion, read-out: percentage inhibition
T6 construct: purchased Sigma
T6 sequence (Q8J2T0 97-600): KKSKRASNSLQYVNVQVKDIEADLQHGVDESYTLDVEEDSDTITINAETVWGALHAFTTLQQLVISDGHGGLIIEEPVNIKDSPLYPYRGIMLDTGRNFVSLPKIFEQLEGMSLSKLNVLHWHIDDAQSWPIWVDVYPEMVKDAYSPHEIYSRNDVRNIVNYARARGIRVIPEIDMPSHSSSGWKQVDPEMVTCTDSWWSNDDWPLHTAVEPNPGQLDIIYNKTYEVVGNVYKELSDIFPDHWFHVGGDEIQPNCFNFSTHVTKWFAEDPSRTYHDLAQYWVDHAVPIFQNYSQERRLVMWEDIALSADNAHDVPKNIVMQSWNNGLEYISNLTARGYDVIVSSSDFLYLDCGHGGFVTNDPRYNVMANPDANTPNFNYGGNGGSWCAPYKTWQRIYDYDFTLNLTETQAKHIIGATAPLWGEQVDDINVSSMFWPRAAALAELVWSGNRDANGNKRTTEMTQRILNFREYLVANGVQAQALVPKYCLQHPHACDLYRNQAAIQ
Description: as §1

[11] = tested on: N-acetyl-β-D-glucosaminidase; assay: Glycosidase assay, N-acetyl-β-D-glucosaminidase (bovine kidney); format: biochemical; details: for percentage inhibition: 0.2 mM, N-acetyl-β-D-glucosaminidase, Bovine kidney, negative value = stabilisation/promotion; for IC50: bovine hexosaminidase, read-out: IC50 against the bovine hexosaminidase
Description: as §1

[12] = molecular target: T7, α-D-glucosidase (Oryza sativa subsp. japonica, UniProt Q653V7); assay: Glycosidase assay, α-D-glucosidase (rice); format: biochemical; details: 0.2 mM, Rice (Oryza saliva), negative value = stabilisation/promotion, read-out: percentage inhibition
T7 construct: purchased Sigma
T7 sequence (Q653V7 34-885): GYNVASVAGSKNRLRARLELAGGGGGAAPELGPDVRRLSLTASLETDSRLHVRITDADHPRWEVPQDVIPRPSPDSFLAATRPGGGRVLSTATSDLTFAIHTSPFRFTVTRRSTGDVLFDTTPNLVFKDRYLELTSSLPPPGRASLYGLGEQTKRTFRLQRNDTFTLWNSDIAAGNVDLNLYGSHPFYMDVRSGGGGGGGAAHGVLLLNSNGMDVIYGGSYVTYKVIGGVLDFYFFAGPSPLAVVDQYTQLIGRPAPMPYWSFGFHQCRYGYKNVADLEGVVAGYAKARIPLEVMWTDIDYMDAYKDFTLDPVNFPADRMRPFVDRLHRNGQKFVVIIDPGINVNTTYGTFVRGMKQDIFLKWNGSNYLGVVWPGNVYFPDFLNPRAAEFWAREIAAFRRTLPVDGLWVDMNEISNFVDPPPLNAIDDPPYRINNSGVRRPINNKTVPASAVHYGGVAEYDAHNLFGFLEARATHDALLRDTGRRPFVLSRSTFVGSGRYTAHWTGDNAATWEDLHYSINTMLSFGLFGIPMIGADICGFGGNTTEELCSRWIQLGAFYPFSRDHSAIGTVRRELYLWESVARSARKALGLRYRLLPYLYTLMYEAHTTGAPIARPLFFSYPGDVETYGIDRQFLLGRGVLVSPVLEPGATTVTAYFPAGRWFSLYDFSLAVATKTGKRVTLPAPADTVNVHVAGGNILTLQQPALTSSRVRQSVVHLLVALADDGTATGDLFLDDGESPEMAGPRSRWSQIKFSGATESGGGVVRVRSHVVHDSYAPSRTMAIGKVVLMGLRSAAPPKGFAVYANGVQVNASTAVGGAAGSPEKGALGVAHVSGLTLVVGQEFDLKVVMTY
Description: as §1

[13] = molecular target: T8, α-D-mannosidase (Canavalia ensiformis, UniProt C0HJB3); assay: Glycosidase assay, α-D-mannosidase (jack bean); format: biochemical, Jack bean (Canavalia ensiformis); details: read-out: percentage inhibition
T8 construct: purchased Sigma
T8 sequence (C0HJB3 1-981): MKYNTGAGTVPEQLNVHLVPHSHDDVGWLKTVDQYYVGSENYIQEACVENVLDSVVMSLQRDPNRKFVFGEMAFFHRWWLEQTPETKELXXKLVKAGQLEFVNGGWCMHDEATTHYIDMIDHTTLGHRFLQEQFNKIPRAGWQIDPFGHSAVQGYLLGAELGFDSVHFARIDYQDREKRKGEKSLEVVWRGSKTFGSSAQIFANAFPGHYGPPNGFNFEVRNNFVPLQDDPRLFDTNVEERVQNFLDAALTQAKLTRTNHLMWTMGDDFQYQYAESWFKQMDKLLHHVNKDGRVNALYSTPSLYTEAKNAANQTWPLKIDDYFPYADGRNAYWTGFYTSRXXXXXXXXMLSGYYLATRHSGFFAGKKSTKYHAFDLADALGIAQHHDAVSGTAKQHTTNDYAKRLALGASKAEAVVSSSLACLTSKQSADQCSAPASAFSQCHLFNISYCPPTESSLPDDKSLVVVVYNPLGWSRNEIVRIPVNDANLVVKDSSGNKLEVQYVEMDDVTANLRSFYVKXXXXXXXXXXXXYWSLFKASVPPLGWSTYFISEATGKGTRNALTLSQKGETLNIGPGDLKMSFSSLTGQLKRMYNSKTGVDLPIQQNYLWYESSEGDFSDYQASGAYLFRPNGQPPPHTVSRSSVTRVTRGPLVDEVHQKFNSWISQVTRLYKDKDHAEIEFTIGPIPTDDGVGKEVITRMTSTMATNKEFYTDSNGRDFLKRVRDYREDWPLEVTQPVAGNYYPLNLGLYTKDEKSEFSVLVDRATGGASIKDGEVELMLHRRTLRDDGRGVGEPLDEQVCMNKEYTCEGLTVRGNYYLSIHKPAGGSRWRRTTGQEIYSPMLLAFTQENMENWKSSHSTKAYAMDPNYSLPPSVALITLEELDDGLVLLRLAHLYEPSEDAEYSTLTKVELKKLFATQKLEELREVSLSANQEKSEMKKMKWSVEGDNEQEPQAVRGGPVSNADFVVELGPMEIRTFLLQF
Description: as §1

[14] = molecular target: T9, α-D-giucosidase (Saccharomyces cerevisiae, UniProt P53341); assay: Glycosidase assay, α-D-glucosidase (Saccharomyces cerevisiae); format: biochemical; details: 0.2 mM, negative value = stabilisation/promotion, read-out: percentage inhibition
T9 construct: purchased Sigma
T9 sequence (P53341 whole entry): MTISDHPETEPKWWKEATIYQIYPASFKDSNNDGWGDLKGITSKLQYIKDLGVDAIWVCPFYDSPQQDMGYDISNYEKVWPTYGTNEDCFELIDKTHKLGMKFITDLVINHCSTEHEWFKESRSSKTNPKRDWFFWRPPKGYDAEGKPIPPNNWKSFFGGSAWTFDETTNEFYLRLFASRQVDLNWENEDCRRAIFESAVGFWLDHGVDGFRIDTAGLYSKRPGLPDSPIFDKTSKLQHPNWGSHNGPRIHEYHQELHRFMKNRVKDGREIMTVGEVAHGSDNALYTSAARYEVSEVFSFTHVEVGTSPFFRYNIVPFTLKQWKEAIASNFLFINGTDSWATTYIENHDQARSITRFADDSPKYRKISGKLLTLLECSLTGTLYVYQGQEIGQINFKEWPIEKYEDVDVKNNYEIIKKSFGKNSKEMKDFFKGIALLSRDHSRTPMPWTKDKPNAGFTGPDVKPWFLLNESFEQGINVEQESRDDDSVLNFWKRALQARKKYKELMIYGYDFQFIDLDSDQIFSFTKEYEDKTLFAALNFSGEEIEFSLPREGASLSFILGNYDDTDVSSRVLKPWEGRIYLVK
Description: as §1

[15] = molecular target: T10, α-L-fucosidase (Bos taurus, UniProt Q2KIM0); assay: Glycosidase assay, α-L-fucosidase (bovine kidney); format: biochemical; details: 0.2 mM, negative value = stabilisation/promotion, read-out: percentage inhibition
T10 construct: purchased Sigma
T10 sequence (Q2KIM0 23-468): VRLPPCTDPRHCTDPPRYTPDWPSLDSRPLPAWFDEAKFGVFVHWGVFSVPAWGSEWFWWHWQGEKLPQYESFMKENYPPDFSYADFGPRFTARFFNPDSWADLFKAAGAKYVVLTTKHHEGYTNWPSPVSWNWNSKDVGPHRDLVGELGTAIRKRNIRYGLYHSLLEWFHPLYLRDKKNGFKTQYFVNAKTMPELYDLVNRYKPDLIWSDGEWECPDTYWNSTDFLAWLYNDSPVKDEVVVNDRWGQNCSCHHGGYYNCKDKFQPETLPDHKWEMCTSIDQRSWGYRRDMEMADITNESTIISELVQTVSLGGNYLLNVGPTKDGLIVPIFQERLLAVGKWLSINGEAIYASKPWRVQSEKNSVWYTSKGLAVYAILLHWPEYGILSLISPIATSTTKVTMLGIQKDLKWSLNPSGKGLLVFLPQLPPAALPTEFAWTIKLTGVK
Description: as §1

[16] = tested on: β-D-glucosidase; assay: Glycosidase assay, β-D-glucosidase (almond); format: biochemical; details: 0.2 mM, Almond (Prunus sp.), negative value = stabilisation/promotion
Description: as §1

[17] = tested on: β-D-galactosidase; assay: Glycosidase assay, β-D-galactosidase (bovine liver); format: biochemical; details: 0.2 mM, negative value = stabilisation/promotion
Description: as §1

Structure (SMILES) | percentage inhibition [1] | inhibition at 200 µM [2] | percentage inhibition [3] | inhibition at 200 µM [4] | percentage inhibition [5] | inhibition at 200 µM [6] | inhibition at 400 µM [7] | percentage inhibition [8] | inhibition at 200 µM [9] | inhibition at 200 µM [10] | percentage inhibition [11] | IC50 [11] | inhibition at 200 µM [12] | inhibition at 200 µM [13] | inhibition at 200 µM [14] | inhibition at 200 µM [15] | percentage inhibition [16] | percentage inhibition [17] | IC50 ([2]; bovine β-glucuronidase, read-out: IC50 against the bovine β-glucuronidase) | inhibition at 200 µM ([13]; 0.2 mM, α-D-mannosidase, Jack bean (Canavalia ensiformis), negative value = stabilisation/promotion)
O=C(O)CCCNCC1(O)OCC(O)C(O)C1O (stereo not shown) [1-Deoxy-1-(N-γ-aminobutyric acid)fructose] | 0.2% | -1.2% | −6.3% | -0.8% | 0.7% | -7.1% | 5.5% | −10.3% | -2.9% | -19.2% | 55.3% | 200 µM | -4.2% | -6.2% | -4.2% | -1.3% | −0.9% | 1.3% |  | 
N=C(N)NCCCC(NCC1(O)OCC(O)C(O)C1O)C(=O)O [N2-β-D-Fructopyranos-1-yl-Arginine, 5-carbamimidamido-2-{[(2,3,4,5-tetrahydroxytetrahydro-2H-pyran-2-yl)methyl]amino}pentanoic acid] | 4.1% | 85.2% | −0.8% | -9% | −1.7% | 3.4% | 14.2% | −8.1% | 15% | -15.3% | 88.5% | 7.7 µM | -6% |  | -1.4% | -9.3% | 7.6% | −3.9% | 101 µM | 35.2%
